For this assay, the system named is α7 integrin promoter. Kind of assay: muscle cell-based assay: α7βgal+/− myoblasts/myotubes, LacZ reporter, β-galactosidase cleavage of FDG. The conditions noted are these: Myotubes; for Results in a α7+/− β-galactosidase assay, Myotubes, 0.5 uM: compound at 0.5 uM; for Results in a α7+/− β-galactosidase assay, Myotubes, 1 uM: compound at 1 uM; for Results in a α7+/− β-galactosidase assay, Myotubes, 5 uM: compound at 5 uM; for Results in a α7+/− β-galactosidase assay, Myotubes, 10 uM: compound at 10 uM; for Results in a α7+/− β-galactosidase assay, Myotubes, 20 uM: compound at 20 uM; for Results in a α7+/− β-galactosidase assay, Myotubes, 40 uM: compound at 40 uM. Also noted: species or system mouse. The method in brief: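 Fluorescein generated from FDG by β-galactosidase reports α7 integrin promoter activity in differentiated myoblasts from α7+/− LacZ knock-in pups. Screening hits then went to dose-response, western blotting and a myostatin counterscreen.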

Turning to `COc1ccccc1NS(=O)(=O)c1cc(NC(=O)c2ccc(Cl)nc2)ccc1N1CCCC1` [drawing 358], the “Results in a α7+/− β-galactosidase assay, Myotubes, 0.5 uM” value (“Results … 0.5 uM” below) is listed as 0.1418; the “Results in a α7+/− β-galactosidase assay, Myotubes, 1 uM” value (“Results … 1 uM” below) was 0.2243; the “Results in a α7+/− β-galactosidase assay, Myotubes, 5 uM” value (from here on “Results … Myotubes, 5 uM”) stood at 0.0609; the “Results in a α7+/− β-galactosidase assay, Myotubes, 10 uM” value (“Results … 10 uM” for short) is reported as 0.2352. The “Results in a α7+/− β-galactosidase assay, Myotubes, 20 uM” value (“Results … 20 uM” below) was −0.07572 and the “Results in a α7+/− β-galactosidase assay, Myotubes, 40 uM” value (shortened to “Results … 40 uM”) is recorded as −0.1492.

As to `N#C/C(=C1/C(=O)Nc2ccc(Br)cc21)c1ccccn1` [drawing 359], the “Results … 0.5 uM” value was determined as 0.2651; the “Results … 1 uM” value is given as 0.03214; the “Results … Myotubes, 5 uM” value is −0.1525; the “Results … 10 uM” value is on record as −0.1528. Moreover, the “Results … 20 uM” value was −0.2624 and the “Results … 40 uM” value is given as −0.2931.

With `N#CC1=C2SCN(c3ccccc3)CN2C(=O)CC1c1cccs1` (stereo not drawn) [drawing 360], the “Results … 0.5 uM” value was 0.09082; the “Results … 1 uM” value is recorded as 0.1158; the “Results … Myotubes, 5 uM” value is listed as −0.0988; the “Results … 10 uM” value is −0.03259. Moreover, the “Results … 20 uM” value is recorded as −0.2578 and the “Results … 40 uM” value is given as −0.3783.

As to `COc1ccc(C(=O)/C=C2\C(=O)Nc3ccccc32)cc1` [drawing 361], the “Results … 0.5 uM” value was 0.1208; the “Results … 1 uM” value came out at 0.06821; the “Results … Myotubes, 5 uM” value is recorded as −0.04505; the “Results … 10 uM” value is reported as −0.256. Further, the “Results … 20 uM” value is recorded as −0.3122 and the “Results … 40 uM” value is −0.5124.

Consider `O=C(O)c1csc(-c2cccs2)n1` [drawing 362], for which the “Results … 0.5 uM” value worked out at 0.2703; the “Results … 1 uM” value is recorded as 0.2837; the “Results … Myotubes, 5 uM” value was 0.2451; the “Results … 10 uM” value is −0.02819. In addition, the “Results … 20 uM” value was −0.1366 and the “Results … 40 uM” value is −0.1007.

Regarding `COc1cccc(C(=O)COc2ccc3ccc(=O)oc3c2)c1` [drawing 363], the “Results … 0.5 uM” value was 0.3069; the “Results … 1 uM” value is reported as 0.2317; the “Results … Myotubes, 5 uM” value amounted to 0.07669; the “Results … 10 uM” value was 0.03997. Besides, the “Results … 20 uM” value is recorded as −0.3325 and the “Results … 40 uM” value is on record as −0.3127.

As to `CCCS(=O)(=O)c1nc(S(=O)(=O)c2ccc(C)cc2)c(N2CCCC2)s1` [drawing 364], the “Results … 0.5 uM” value is given as 0.01021; the “Results … 1 uM” value is 0.05992; the “Results … Myotubes, 5 uM” value is given as −0.01197; the “Results … 10 uM” value is reported as −0.0108. In addition, the “Results … 20 uM” value is −0.2345 and the “Results … 40 uM” value is recorded as −0.3321.

Take `OC(c1nc2cc(F)ccc2[nH]1)C(O)c1nc2cc(F)ccc2[nH]1` (stereo not drawn) [drawing 365]: the “Results … 0.5 uM” value came out at 0.0667; the “Results … 1 uM” value came out at 0.1032; the “Results … Myotubes, 5 uM” value worked out at 0.2081; the “Results … 10 uM” value was 0.01319. Besides, the “Results … 20 uM” value is reported as −0.09026 and the “Results … 40 uM” value is reported as −0.08066.

Regarding `COc1ccc(OC)c(NC(=O)CN2CCC(NC(=O)c3ccccc3C)CC2)c1` [drawing 366], the “Results … 0.5 uM” value is listed as 0.003237; the “Results … 1 uM” value worked out at 0.04584; the “Results … Myotubes, 5 uM” value is −0.09583; the “Results … 10 uM” value was −0.1153. The “Results … 20 uM” value is recorded as −0.1579 and the “Results … 40 uM” value is on record as −0.08927.

Consider `O=C(CCc1ccccc1)c1nnc(-c2ccccc2)o1` [drawing 367], for which the “Results … 0.5 uM” value is listed as 0.117; the “Results … 1 uM” value worked out at 0.1296; the “Results … Myotubes, 5 uM” value was −0.09921; the “Results … 10 uM” value was −0.1418. Besides, the “Results … 20 uM” value is −0.1125 and the “Results … 40 uM” value came to 0.05525.

`COc1ccc(/N=N/c2ccc(N)nc2N)cc1` [drawing 368]: the “Results … 0.5 uM” value is 0.1561; the “Results … 1 uM” value is recorded as 0.1699; the “Results … Myotubes, 5 uM” value is listed as −0.00041; the “Results … 10 uM” value was −0.06379. In addition, the “Results … 20 uM” value was −0.1224 and the “Results … 40 uM” value is given as −0.03271.

Take `N=C(NOC(=O)c1cccc(C(F)(F)F)c1)c1cnccn1` [drawing 369]: the “Results … 0.5 uM” value amounted to 0.07542; the “Results … 1 uM” value came to 0.07664; the “Results … Myotubes, 5 uM” value is reported as −0.08801; the “Results … 10 uM” value is reported as −0.1676. In addition, the “Results … 20 uM” value is recorded as −0.1858 and the “Results … 40 uM” value is −0.1541.

Regarding `CCOc1ccc2nc(Cl)sc2c1` [drawing 370], the “Results … 0.5 uM” value is −0.00103; the “Results … 1 uM” value was 0.001963; the “Results … Myotubes, 5 uM” value was −0.02718; the “Results … 10 uM” value is on record as −0.04332. Besides, the “Results … 20 uM” value was −0.1345 and the “Results … 40 uM” value is on record as −0.219.

As for `COc1ccc(CNC(=O)C2CCCN(S(=O)(=O)c3c(C)noc3/C=C/N(C)C)C2)cc1` (stereo not drawn) [drawing 371], the “Results … 0.5 uM” value was 0.1862; the “Results … 1 uM” value was found to be 0.2675; the “Results … Myotubes, 5 uM” value is listed as −0.1068; the “Results … 10 uM” value is on record as −0.1252. Also, the “Results … 20 uM” value is reported as −0.1996 and the “Results … 40 uM” value was −0.2682.

In the case of `CC(O)CNc1nc2c(c(=O)n(Cc3ccc(Br)cc3)c(=O)n2C)n1C` (stereo not drawn) [drawing 372], the “Results … 0.5 uM” value was determined as 0.1594; the “Results … 1 uM” value is listed as 0.164; the “Results … Myotubes, 5 uM” value is −0.05597; the “Results … 10 uM” value is listed as −0.08357. Moreover, the “Results … 20 uM” value was −0.2604 and the “Results … 40 uM” value is −0.369.
